The values that follow come from patent publication US11135234B2, “Effective aminoglycoside antibiotic for multidrug-resistant bacteria” (MICROBIAL CHEMISTRY RESEARCH FOUNDATION, priority 2015, dated 2021).

The test system of assay [1] is S. marcescens GN6944. The assay is described as follows: MIC, agar plate dilution method, S. marcescens GN6944. Type of assay: cell-based, Serratia marcescens. The note with it: Serratia marcescens, S. marcescens GN6944, GM-resistant, read-out: minimal inhibitory concentration (MIC). The method in brief: (§1)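 Japan Society of Chemotherapy agar dilution protocol used. MIC reported in μg/mL.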

In assay [2] the test system is K. pneumoniae ATCC BAA-1705. The assay is described as follows: MIC, agar plate dilution method, K. pneumoniae ATCC BAA-1705. Type of assay: cell-based, Klebsiella pneumoniae. The note with it: Klebsiella pneumoniae, ATCCBAA1705, K. pneumoniae ATCC BAA-1705, KPC-producing strain, read-out: minimal inhibitory concentration (MIC). The method in brief:
as §1

Assay [3] has as its system A. baumannii ATCC BAA-1710. In words: MIC, agar plate dilution method, A. baumannii ATCC BAA-1710. Conditions: Acinetobacter baumannii, ATCCBAA1710, A. baumannii ATCC BAA-1710, MDRA, read-out: minimal inhibitory concentration (MIC). Type of assay: cell-based, Acinetobacter baumannii. The method in brief:
as §1

Assay [4] relates to S. marcescens TH-0447. In words: MIC, agar plate dilution method, S. marcescens TH-0447. Type of assay: cell-based, Serratia marcescens. The note with it: Serratia marcescens, TH0447, S. marcescens TH-0447, AMK-resistant, read-out: minimal inhibitory concentration (MIC). The method in brief:
as §1

The test system of assay [5] is P. aeruginosa MSC17707. In words: MIC, agar plate dilution method, P. aeruginosa MSC17707. The assay is classed as cell-based, Pseudomonas aeruginosa. The note with it: Pseudomonas aeruginosa, MSC17707, P. aeruginosa MSC17707, AMK-resistant, read-out: minimal inhibitory concentration (MIC). The method in brief: as §1
Assay [6] deals with E. coli JM109/pMW218. The assay is described as follows: MIC, agar plate dilution method, E. coli JM109/pMW218. Type of assay: cell-based, Escherichia coli. Conditions: Escherichia coli, JM109/PMW218, E. coli JM109/pMW218, Sensitive bacterium, read-out: minimal inhibitory concentration (MIC). The method in brief: as §1
In assay [7] the test system is E. faecium ATCC19434. The assay is described as follows: MIC, agar plate dilution method, E. faecium ATCC19434. The assay is classed as cell-based, Enterococcus faecium. The note with it: Enterococcus faecium, ATCC19434, E. faecium ATCC19434, read-out: minimal inhibitory concentration (MIC). The method in brief:
as §1

Assay [8] has as its system P. aeruginosa PAO1. In words: MIC, agar plate dilution method, P. aeruginosa PAO1. The assay is classed as cell-based, Pseudomonas aeruginosa. Conditions: Pseudomonas aeruginosa, PAO1, P. aeruginosa PAO1, Sensitive bacterium, read-out: minimal inhibitory concentration (MIC). The method in brief: as §1
Assay [9] concerns P. aeruginosa PAO1/GN315. In words: MIC, agar plate dilution method, P. aeruginosa PAO1/GN315. Conditions: Pseudomonas aeruginosa, read-out: minimal inhibitory concentration (MIC), P. aeruginosa PAO1/GN315, AMK-resistant. Type of assay: cell-based, Pseudomonas aeruginosa. The method in brief: as §1
Assay [10] deals with K. pneumoniae ATCC BAA-2146. In words: MIC, agar plate dilution method, K. pneumoniae ATCC BAA-2146. Conditions: Klebsiella pneumoniae, ATCCBAA2146, K. pneumoniae ATCC BAA-2146, NDM-producing strain, read-out: minimal inhibitory concentration (MIC). The assay is classed as cell-based, Klebsiella pneumoniae. The method in brief: as §1
The subject of assay [11] is S. aureus RN4220. The assay is described as follows: MIC, agar plate dilution method, S. aureus RN4220. The assay is classed as cell-based, Staphylococcus aureus. The note with it: Staphylococcus aureus, RN4220, S. aureus RN4220, Sensitive bacterium, read-out: minimal inhibitory concentration (MIC). The method in brief:
as §1

Assay [12] relates to P. aeruginosa MSC01035. In words: MIC, agar plate dilution method, P. aeruginosa MSC01035. The note with it: Pseudomonas aeruginosa, P. aeruginosa MSC01035, ABK-resistant, read-out: minimal inhibitory concentration (MIC). Type of assay: cell-based, Pseudomonas aeruginosa. The method in brief: as §1
The subject of assay [13] is S. aureus MF490. The assay is described as follows: MIC, agar plate dilution method, S. aureus MF490. Type of assay: cell-based, Staphylococcus aureus. The note with it: Staphylococcus aureus, MRSA, read-out: minimal inhibitory concentration (MIC). The method in brief:
as §1

For assay [14], the system named is S. aureus RN4220/pMS520. The assay is described as follows: MIC, agar plate dilution method, S. aureus RN4220/pMS520. The assay is classed as cell-based, Staphylococcus aureus. Conditions: Staphylococcus aureus, MRSA, read-out: minimal inhibitory concentration (MIC), S. aureus RN4220/pMS520, MRSA. The method in brief:
as §1

Values after ≈ are worked out from the molar mass of the structure shown.

As to `CNC1C(O[C@H]2OC(CO)[C@@H](NCCN)[C@H](O)C2O)O[C@H]2CC(N)[C@@H](O[C@@H]3C(N)C[C@@H](N)C[C@H]3O)OC2C1O` (some centres unmarked) [Compound S1-m, 6-deoxy-4″-N-(2-aminoethyl)-5-epiapramycin], the MIC in [1] worked out at 8 µg/mL (≈ 14.1 µM); in assay [2], 2 µg/mL (≈ 3.53 µM); in assay [3], 4 µg/mL (≈ 7.06 µM); in [4], 4 µg/mL (≈ 7.06 µM); in [5] it was 8 µg/mL (≈ 14.1 µM); in assay [6], 1 µg/mL (≈ 1.76 µM). Also, the MIC amounted to 16 µg/mL (≈ 28.2 µM) in assay [7]; 4 µg/mL (≈ 7.06 µM) in assay [8]; 8 µg/mL (≈ 14.1 µM) in assay [9]; 1 µg/mL (≈ 1.76 µM) in [10]; 2 µg/mL (≈ 3.53 µM) in [11]; 8 µg/mL (≈ 14.1 µM) in assay [12]. In addition, the MIC in assay [13] was 8 µg/mL (≈ 14.1 µM); in [14], 2 µg/mL (≈ 3.53 µM).

For `CNC1C(O[C@H]2OC(CO)[C@@H](NCCCN)[C@H](O)C2O)O[C@H]2CC(N)[C@@H](O[C@@H]3C(N)C[C@@H](N)C[C@H]3O)OC2C1O` (some centres unmarked) [Compound S1-n, 6-deoxy-4″-N-(3-aminopropyl)-5-epiapramycin], the MIC in assay [1] was 4 µg/mL (≈ 6.89 µM); in assay [2], 1 µg/mL (≈ 1.72 µM); in assay [3], 4 µg/mL (≈ 6.89 µM); in assay [4], 4 µg/mL (≈ 6.89 µM); in assay [5] it was 8 µg/mL (≈ 13.8 µM); in [6], 1 µg/mL (≈ 1.72 µM). In addition, the MIC turned out to be 8 µg/mL (≈ 13.8 µM) in [7]; 4 µg/mL (≈ 6.89 µM) in assay [8]; 4 µg/mL (≈ 6.89 µM) in [9]; 1 µg/mL (≈ 1.72 µM) in [10]; 2 µg/mL (≈ 3.44 µM) in assay [11]; 4 µg/mL (≈ 6.89 µM) in assay [12]. Also, the values for the MIC in [13] and in assay [14] were 8 µg/mL (≈ 13.8 µM) and 2 µg/mL (≈ 3.44 µM), respectively.

`CNC1C(O[C@H]2OC(CO)[C@@H](NC(=N)N)[C@H](O)C2O)O[C@H]2CC(N)[C@@H](O[C@@H]3C(N)C[C@@H](N)C[C@H]3O)OC2C1O` (stereo partly drawn) [Compound S1-o, 4″-deamino-6-deoxy-5-epi-4″-guanidinoapramycin]: the MIC in assay [1] amounted to 2 µg/mL (≈ 3.54 µM); in [2], 1 µg/mL (≈ 1.77 µM); in assay [3] it was 4 µg/mL (≈ 7.07 µM); in [4], 4 µg/mL (≈ 7.07 µM); in assay [5], 4 µg/mL (≈ 7.07 µM); in assay [6], 0.5 µg/mL (≈ 0.884 µM). Besides, the MIC in assay [7] turned out to be 8 µg/mL (≈ 14.1 µM); in [8], 2 µg/mL (≈ 3.54 µM); in assay [9], 4 µg/mL (≈ 7.07 µM); in assay [10] it was 0.5 µg/mL (≈ 0.884 µM); in assay [11], 1 µg/mL (≈ 1.77 µM); in assay [12], 4 µg/mL (≈ 7.07 µM). For the same molecule, the MIC in assay [13] was determined as 2 µg/mL (≈ 3.54 µM); in assay [14], 1 µg/mL (≈ 1.77 µM).

`CNC1C(O[C@H]2OC(C)[C@@H](NC(CN)CN)[C@H](O)C2O)O[C@H]2CC(N)[C@@H](O[C@H]3CC(O)[C@H](N)CC3N)OC2C1O` (some centres unmarked) [Compound S1-p, 4″-N-(1,3-diaminopropan-2-yl)-5,6″-dideoxyapramycin]: the MIC in [1] turned out to be 4 µg/mL (≈ 6.9 µM); in assay [2], 1 µg/mL (≈ 1.73 µM); in assay [3], 8 µg/mL (≈ 13.8 µM); in [4] it was 8 µg/mL (≈ 13.8 µM); in [5], 4 µg/mL (≈ 6.9 µM); in [6], 1 µg/mL (≈ 1.73 µM). For the same molecule, the MIC in [7] is 4 µg/mL (≈ 6.9 µM); in assay [8], 2 µg/mL (≈ 3.45 µM); in [9], 4 µg/mL (≈ 6.9 µM); in assay [10] it was 1 µg/mL (≈ 1.73 µM); in assay [11], 1 µg/mL (≈ 1.73 µM); in assay [12], 4 µg/mL (≈ 6.9 µM). The MIC in assay [13] was determined as 2 µg/mL (≈ 3.45 µM); in [14], 1 µg/mL (≈ 1.73 µM).
